# Assays:
# [1] = tested on: ECHORC (Watergrass (Calif.)); test: Postemergence weed control under flooded paddy conditions; assay type: in vivo, Echinochloa oryzoides; settings: postemergence weeds, 3-4 weeks after treatment
# In short: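 Containers holding 3–5 cm weeds and rice at 1.5–2.5 leaves are flooded to 1.5–3 cm above soil. Compound in 50/50 v/v aqueous/acetone is then added directly to the water, about 0.0313–0.500 kg/ha. Plants are kept in the greenhouse and rated 0–9 visually at 3–4 weeks.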
# [2] = tested on: GLXMAW (Soybean, Williams); test: Preemergence herbicidal evaluation; assay type: in vivo, Glycine max, (L.) Merr. cv Williams; settings: rated 4-5 weeks after treatment
# In short: (§1)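 Preemergence soil application of compound, sprayed in aqueous acetone at rates equivalent to about 0.0156 to 0.500 kg per hectare onto freshly sown cups. Plant response was judged by eye on a 0-9 scale four to five weeks later.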
# ABUTH (Velvetleaf) = test: Preemergence herbicidal evaluation; assay type: in vivo, Abutilon theophrasti; settings: rated 4-5 weeks after treatment
# In short: as §1
# AMBEL (Ragweed, Common) [3] = test: Preemergence herbicidal evaluation; assay type: in vivo, Ambrosia artemisifolia; settings: rated 4-5 weeks after treatment
# In short: as §1
# [4] = tested on: SAGPY (Arrowhead (Pygmaea)); test: Preemergence weed control under flooded paddy conditions; assay type: in vivo, Sagittaria pygmaea; settings: rated 3-4 weeks after treatment
# In short: (§2)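 Silt loam, seeds in top 0.5 cm; flood held 1.5-3 cm; test cpd as acetone/water 50/50 into flood water, ~0.0313-0.500 kg/ha a.i.; greenhouse 3-4 wk; visual 0-9 score vs control.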
# CASOB (Sicklepod) = test: Preemergence herbicidal evaluation; assay type: in vivo, Cassia obtusifolia; settings: rated 4-5 weeks after treatment
# In short: as §1
# AMBEL (Ragweed, Common) [5] = test: Postemergence herbicidal evaluation; assay type: in vivo, Ambrosia artemisifolia; settings: postemergence
# In short: (§3)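 Scores (0–9) reflect plant stand, vigor, malformation, size, chlorosis and general appearance relative to control, read 4 to 5 weeks after treatment and averaged where tests were repeated. Application: about 0.0156–0.500 kg/ha sprayed at 40 psi onto two-week seedlings.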
# GALAP (Galium) = test: Preemergence herbicidal evaluation; assay type: in vivo, Galium aparine; settings: rated 4-5 weeks after treatment
# In short: as §1
# ECHCG (Barnyardgrass) = test: Preemergence herbicidal evaluation; assay type: in vivo, Echinochloa crus-galli; settings: rated 4-5 weeks after treatment
# In short: as §1
# CYPSE (Flatsedge) = test: Preemergence weed control under flooded paddy conditions; assay type: in vivo, Cyperus serotinus; settings: rated 3-4 weeks after treatment
# In short: as §2
# [6] = tested on: IPOHE (Morningglory, Ivyleaf); test: Postemergence herbicidal evaluation; assay type: in vivo, Ipomoea hederacea; settings: postemergence
# In short: as §3
# SETVI (Foxtail, Green) = test: Preemergence herbicidal evaluation; assay type: in vivo, Setaria viridis; settings: rated 4-5 weeks after treatment
# In short: as §1
# [7] = tested on: GLXMAW (Soybean, Williams); test: Postemergence herbicidal evaluation; assay type: in vivo, Glycine max, (L.) Merr. cv Williams; settings: postemergence
# In short: as §3
# ZEAMX (Corn, Field) = test: Postemergence herbicidal evaluation; assay type: in vivo, Zea mays; settings: postemergence
# In short: as §3
structure (smiles),measurement,setting,value
"CCOC(=O)CN1C(=O)CO/C1=N/c1cc(-n2c(=O)cc(C(F)(F)F)n(C)c2=O)c(F)cc1Cl [Compound 22, Ethyl 2-{{2-chloro-5-[3,6-dihydro-3-methyl-2,6-dioxo-4-(trifluoromethyl)-1(2H)-pyrimidinyl]-4-fluorophenyl}imino}-4-oxo-3-oxazolidineacetate]",Herbicidal rating ECHORC,[1]; rate 0.1160 kg/ha,6.0
same,Herbicidal rating ECHORC,[1]; rate 0.2310 kg/ha,9.0
same,Herbicidal rating ECHORC,[1]; rate 0.4630 kg/ha,9.0
same,GLXMAW preemergence herbicidal rating,[2]; rate 0.0156 kg/ha,0.0
same,GLXMAW preemergence herbicidal rating,[2]; rate 0.0313 kg/ha,0.0
same,GLXMAW preemergence herbicidal rating,[2]; rate 0.0625 kg/ha,3.0
same,GLXMAW preemergence herbicidal rating,[2]; rate 0.1250 kg/ha,7.0
same,GLXMAW preemergence herbicidal rating,[2]; rate 0.2500 kg/ha,9.0
same,ABUTH preemergence herbicidal rating,ABUTH (Velvetleaf); rate 0.0156 kg/ha,9.0
same,ABUTH preemergence herbicidal rating,ABUTH (Velvetleaf); rate 0.0313 kg/ha,9.0
same,ABUTH preemergence herbicidal rating,ABUTH (Velvetleaf); rate 0.0625 kg/ha,9.0
same,ABUTH preemergence herbicidal rating,ABUTH (Velvetleaf); rate 0.1250 kg/ha,9.0
same,ABUTH preemergence herbicidal rating,ABUTH (Velvetleaf); rate 0.2500 kg/ha,9.0
same,AMBEL preemergence herbicidal rating,"AMBEL (Ragweed, Common) [3]; rate 0.0156 kg/ha",0.0
same,AMBEL preemergence herbicidal rating,"AMBEL (Ragweed, Common) [3]; rate 0.0313 kg/ha",5.0
same,AMBEL preemergence herbicidal rating,"AMBEL (Ragweed, Common) [3]; rate 0.0625 kg/ha",7.0
same,AMBEL preemergence herbicidal rating,"AMBEL (Ragweed, Common) [3]; rate 0.1250 kg/ha",9.0
same,AMBEL preemergence herbicidal rating,"AMBEL (Ragweed, Common) [3]; rate 0.2500 kg/ha",9.0
same,Herbicidal rating SAGPY,[4]; 0.1160 kg/ha,4.0
same,Herbicidal rating SAGPY,[4]; 0.2310 kg/ha,4.0
same,Herbicidal rating SAGPY,[4]; 0.4630 kg/ha,5.0
same,CASOB preemergence herbicidal rating,CASOB (Sicklepod); rate 0.0156 kg/ha,0.0
same,CASOB preemergence herbicidal rating,CASOB (Sicklepod); rate 0.0313 kg/ha,0.0
same,CASOB preemergence herbicidal rating,CASOB (Sicklepod); rate 0.0625 kg/ha,0.0
same,CASOB preemergence herbicidal rating,CASOB (Sicklepod); rate 0.1250 kg/ha,3.0
same,CASOB preemergence herbicidal rating,CASOB (Sicklepod); rate 0.2500 kg/ha,9.0
same,AMBEL herbicidal rating,"AMBEL (Ragweed, Common) [5]; rate 0.0158 kg/ha",6.0
same,AMBEL herbicidal rating,"AMBEL (Ragweed, Common) [5]; rate 0.0315 kg/ha",6.0
same,AMBEL herbicidal rating,"AMBEL (Ragweed, Common) [5]; rate 0.0630 kg/ha",7.0
same,GALAP preemergence herbicidal rating,GALAP (Galium); rate 0.0156 kg/ha,0.0
same,GALAP preemergence herbicidal rating,GALAP (Galium); rate 0.0313 kg/ha,0.0
same,GALAP preemergence herbicidal rating,GALAP (Galium); rate 0.0625 kg/ha,0.0
same,GALAP preemergence herbicidal rating,GALAP (Galium); rate 0.1250 kg/ha,0.0
same,GALAP preemergence herbicidal rating,GALAP (Galium); rate 0.2500 kg/ha,9.0
same,ECHCG preemergence herbicidal rating,ECHCG (Barnyardgrass); rate 0.0156 kg/ha,0.0
same,ECHCG preemergence herbicidal rating,ECHCG (Barnyardgrass); rate 0.0313 kg/ha,0.0
same,ECHCG preemergence herbicidal rating,ECHCG (Barnyardgrass); rate 0.0625 kg/ha,0.0
same,ECHCG preemergence herbicidal rating,ECHCG (Barnyardgrass); rate 0.1250 kg/ha,3.0
same,ECHCG preemergence herbicidal rating,ECHCG (Barnyardgrass); rate 0.2500 kg/ha,9.0
same,Herbicidal rating CYPSE,CYPSE (Flatsedge); 0.1160 kg/ha,4.0
same,Herbicidal rating CYPSE,CYPSE (Flatsedge); 0.2310 kg/ha,4.0
same,Herbicidal rating CYPSE,CYPSE (Flatsedge); 0.4630 kg/ha,4.0
same,IPOHE herbicidal rating,[6]; rate 0.0158 kg/ha,9.0
same,IPOHE herbicidal rating,[6]; rate 0.0315 kg/ha,9.0
same,IPOHE herbicidal rating,[6]; rate 0.0630 kg/ha,9.0
same,SETVI preemergence herbicidal rating,"SETVI (Foxtail, Green); rate 0.0156 kg/ha",0.0
same,SETVI preemergence herbicidal rating,"SETVI (Foxtail, Green); rate 0.0313 kg/ha",7.0
same,SETVI preemergence herbicidal rating,"SETVI (Foxtail, Green); rate 0.0625 kg/ha",9.0
same,SETVI preemergence herbicidal rating,"SETVI (Foxtail, Green); rate 0.1250 kg/ha",9.0
same,SETVI preemergence herbicidal rating,"SETVI (Foxtail, Green); rate 0.2500 kg/ha",9.0
same,GLXMAW herbicidal rating,[7]; rate 0.0158 kg/ha,5.5
same,GLXMAW herbicidal rating,[7]; rate 0.0315 kg/ha,6.5
same,GLXMAW herbicidal rating,[7]; rate 0.0630 kg/ha,5.5
same,ZEAMX herbicidal rating,"ZEAMX (Corn, Field); rate 0.0158 kg/ha",7.0
same,ZEAMX herbicidal rating,"ZEAMX (Corn, Field); rate 0.0315 kg/ha",7.5
same,ZEAMX herbicidal rating,"ZEAMX (Corn, Field); rate 0.0630 kg/ha",7.5
